Key:
[1] = aqueous solution, depending on content of active agent; cited from earlier work
[2] = nasal administration, no first pass effect; cited from earlier work
claustrophobic patients = conditions: cited from earlier work
[3] = Bioavailability and plasma concentration after midazolam from the bi-dose nasal spray

Compound: Cc1ncc2n1-c1ccc(Cl)cc1C(c1ccccc1F)=NC2 [midazolam, 8-chloro-6-(2-fluorophenyl)-1-methyl-4H-imidazole[1,5-a][1,4]-benzodiazepine]
- pH below which the solution of the active agent is stable (precipitates at higher pH) [1]: < 3.8 pH
- bioavailability using a nasal spray [2]: about 80%
- MRI examinations carried out successfully and without relevant side effects (claustrophobic patients; 72 patients, oral 7.5 mg (TG1) or intranasal 1.0 to 2.0 mg (TG2)): 97%
- MRI imaging quality, intranasal group TG2 compared to oral group TG1 (claustrophobic patients; intranasal 1-2 mg versus oral 7.5 mg, p<0.001): significantly higher
- anxiolytic effect of nasally administered versus orally administered form (claustrophobic patients; intranasal 1-2 mg versus oral 7.5 mg): significantly superior
- time after administration at which a significant plasma concentration is achieved ([3]; bi-dose nasal spray, intranasal): 2 min
- bioavailability ([3]; human, plasma, inhaled or intranasal): > 83%
